# Experimental data published in ChEMBL document CHEMBL1201862, “PubChem BioAssay data set” (2004).
# Activity calls are given as the source filed them.
# Tests used:
# [1] = target: Glucose-6-phosphate 1-dehydrogenase (Homo sapiens, UniProt P11413); test: inhibition of Homo sapiens G6PD, dose series – biochemical, fluorescence, selectivity assay for P. falciparum G6PD inhibitor project, dose response (AID 504792); format: functional
# Keap1/Nrf2 = Keap1/Nrf2 (Homo sapiens, UniProt Q14145); test: disruptors of Keap1 binding to Nrf2 peptide – biochemical, fluorescence polarization, cherry-picked samples, dose response (AID 588683)
# Chain of Keap1/Nrf2 (Q16236 whole entry): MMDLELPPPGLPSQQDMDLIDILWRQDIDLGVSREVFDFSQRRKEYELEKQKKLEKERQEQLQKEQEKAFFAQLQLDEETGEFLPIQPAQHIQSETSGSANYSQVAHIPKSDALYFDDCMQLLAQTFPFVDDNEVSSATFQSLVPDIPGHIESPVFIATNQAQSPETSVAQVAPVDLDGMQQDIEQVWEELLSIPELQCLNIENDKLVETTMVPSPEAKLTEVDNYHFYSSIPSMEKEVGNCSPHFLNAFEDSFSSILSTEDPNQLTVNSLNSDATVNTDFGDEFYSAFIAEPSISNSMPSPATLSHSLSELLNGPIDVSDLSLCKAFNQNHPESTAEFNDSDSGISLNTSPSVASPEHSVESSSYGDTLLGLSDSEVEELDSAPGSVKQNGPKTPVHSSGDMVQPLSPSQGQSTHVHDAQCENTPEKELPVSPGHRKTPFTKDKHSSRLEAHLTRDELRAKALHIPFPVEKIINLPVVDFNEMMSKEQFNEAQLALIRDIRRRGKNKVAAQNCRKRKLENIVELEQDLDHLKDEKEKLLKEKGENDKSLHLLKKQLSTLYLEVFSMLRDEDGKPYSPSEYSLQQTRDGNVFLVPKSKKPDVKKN
# Chain of Keap1/Nrf2 (Q14145 whole entry): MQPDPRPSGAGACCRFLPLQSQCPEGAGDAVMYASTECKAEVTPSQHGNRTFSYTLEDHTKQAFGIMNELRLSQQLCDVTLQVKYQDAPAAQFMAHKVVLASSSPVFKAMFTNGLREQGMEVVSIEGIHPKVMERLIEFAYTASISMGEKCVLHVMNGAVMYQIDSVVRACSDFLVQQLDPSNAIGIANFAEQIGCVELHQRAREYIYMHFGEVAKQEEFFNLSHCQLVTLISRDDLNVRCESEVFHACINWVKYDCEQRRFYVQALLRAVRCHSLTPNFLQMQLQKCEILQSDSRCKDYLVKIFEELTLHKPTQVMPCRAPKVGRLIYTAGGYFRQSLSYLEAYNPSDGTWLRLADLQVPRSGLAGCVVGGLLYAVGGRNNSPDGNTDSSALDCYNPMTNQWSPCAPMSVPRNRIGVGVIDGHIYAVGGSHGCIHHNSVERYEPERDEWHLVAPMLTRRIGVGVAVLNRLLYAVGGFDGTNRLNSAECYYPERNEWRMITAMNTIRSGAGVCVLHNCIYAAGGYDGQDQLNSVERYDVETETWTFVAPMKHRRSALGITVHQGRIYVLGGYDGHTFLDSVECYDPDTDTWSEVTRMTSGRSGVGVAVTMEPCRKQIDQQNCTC
# [2] = target: T1, Corticotropin-releasing factor receptor 2/Corticotropin-releasing factor-binding protein (Homo sapiens, UniProt P24387+Q13324); test: activators of CRF receptor 2 with binding protein – uHTS hits, confirmation (AID 602473); format: functional; settings: read-out: EC50_Mean
# T1 sequence (Q13324 whole entry): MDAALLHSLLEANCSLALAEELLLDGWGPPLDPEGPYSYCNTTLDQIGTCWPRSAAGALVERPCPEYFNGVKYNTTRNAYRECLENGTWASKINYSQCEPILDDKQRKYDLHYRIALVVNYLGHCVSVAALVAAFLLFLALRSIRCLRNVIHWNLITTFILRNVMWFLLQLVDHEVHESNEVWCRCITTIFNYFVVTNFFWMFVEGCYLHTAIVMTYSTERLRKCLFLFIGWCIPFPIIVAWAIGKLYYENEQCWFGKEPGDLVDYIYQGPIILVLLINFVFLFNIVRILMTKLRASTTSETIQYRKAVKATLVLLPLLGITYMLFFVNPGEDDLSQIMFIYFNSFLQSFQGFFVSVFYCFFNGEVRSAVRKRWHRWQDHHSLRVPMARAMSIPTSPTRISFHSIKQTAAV
# T1 sequence (P24387 whole entry): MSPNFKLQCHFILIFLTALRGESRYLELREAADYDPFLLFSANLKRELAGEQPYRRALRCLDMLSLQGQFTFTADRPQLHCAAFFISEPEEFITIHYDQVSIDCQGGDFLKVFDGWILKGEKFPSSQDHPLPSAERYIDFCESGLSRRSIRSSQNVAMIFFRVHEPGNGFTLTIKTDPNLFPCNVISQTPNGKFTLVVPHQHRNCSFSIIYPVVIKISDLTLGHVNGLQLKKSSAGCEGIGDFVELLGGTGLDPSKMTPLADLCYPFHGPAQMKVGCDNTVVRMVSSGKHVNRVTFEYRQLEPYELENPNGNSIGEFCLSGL
# [3] = target: T2, Rac GTPase-activating protein 1 (Homo sapiens, UniProt Q9H0H5); test: blockers of MgcRacGAP-driven Rac1 GTP hydrolysis – biochemical, ADP Hunter fluorescence, primary and confirmatory, confirmation (AID 624330); format: functional
# T2 sequence (Q9H0H5 whole entry): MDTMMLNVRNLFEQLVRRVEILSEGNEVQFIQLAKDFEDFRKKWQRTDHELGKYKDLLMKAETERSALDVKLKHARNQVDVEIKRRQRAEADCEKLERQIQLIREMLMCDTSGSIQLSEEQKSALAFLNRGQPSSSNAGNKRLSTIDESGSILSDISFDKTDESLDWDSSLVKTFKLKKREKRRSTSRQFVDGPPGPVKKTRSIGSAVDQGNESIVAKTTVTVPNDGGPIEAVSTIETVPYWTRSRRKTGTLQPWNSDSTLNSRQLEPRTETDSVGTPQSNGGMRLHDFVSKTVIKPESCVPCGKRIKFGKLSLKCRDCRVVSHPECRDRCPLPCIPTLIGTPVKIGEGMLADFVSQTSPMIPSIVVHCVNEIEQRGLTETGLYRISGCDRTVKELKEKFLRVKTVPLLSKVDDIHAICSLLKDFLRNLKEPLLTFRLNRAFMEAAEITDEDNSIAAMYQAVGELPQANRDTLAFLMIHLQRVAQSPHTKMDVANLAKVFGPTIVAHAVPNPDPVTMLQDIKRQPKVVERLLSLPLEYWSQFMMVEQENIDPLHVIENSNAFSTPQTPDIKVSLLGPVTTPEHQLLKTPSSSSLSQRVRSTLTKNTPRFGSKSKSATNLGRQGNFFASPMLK
# Escherichia coli [4] = test: microbe, parasite or virus in culture
# HeLa = test: ATP-based viability loss in HeLa cells – cell-based, CellTiter-Glo luminescence, cherry-pick samples, cytotoxicity control for MITF activator project, dose response (AID 540259); format: functional; settings: Homo sapiens
# Escherichia coli [5] = test: microbe, parasite or virus in culture; remark: listed apart in the source
# [6] = NIH-3T3 fibroblast cytotoxicity, dose response, cytotoxicity control, cell-based, fluorescence, Alamar Blue, secondary assay (AID 2327); format: functional;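 also: NIH-3T3 mouse fibroblasts cultured with fluconazole at 8 µg/mL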
# HEK293 = test: cells; format: functional, cell-based; settings: Homo sapiens
# [7] = target: T3, Nuclear receptor subfamily 0 group B member 1 (Homo sapiens, UniProt P51843); test: Luminescence-based cell-based high throughput dose response assay for inhibitors of the orphan nuclear receptor subfamily 0, group B, member 1 (DAX1; NR0B1). [Related pubchem assays (depositor defined):AID504766, AID504790]; format: functional
# T3 sequence (P51843 whole entry): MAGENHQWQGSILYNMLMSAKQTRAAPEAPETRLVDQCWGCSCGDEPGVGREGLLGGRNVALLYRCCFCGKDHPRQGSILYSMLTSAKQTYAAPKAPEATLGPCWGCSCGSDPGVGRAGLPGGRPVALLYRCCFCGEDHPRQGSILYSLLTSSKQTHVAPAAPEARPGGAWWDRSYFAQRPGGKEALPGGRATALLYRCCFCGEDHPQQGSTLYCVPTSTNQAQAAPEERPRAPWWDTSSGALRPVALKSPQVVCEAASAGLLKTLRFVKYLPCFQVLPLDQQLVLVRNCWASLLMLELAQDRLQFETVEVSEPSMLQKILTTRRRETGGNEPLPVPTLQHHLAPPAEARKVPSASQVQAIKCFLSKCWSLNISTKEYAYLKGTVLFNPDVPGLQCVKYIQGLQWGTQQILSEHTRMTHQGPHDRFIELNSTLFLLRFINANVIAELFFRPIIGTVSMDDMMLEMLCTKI
# CHO = CHO cell viability loss, potency – luminescence, cytotoxicity control for TLR9-MyD88 binding inhibitor project, dose response (AID 588339); format: functional, cell-based, hamster; settings: Cricetulus griseus;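 also: CHO cells stably coexpressing TLR9 and MyD88 fusions from primary screen; compound exposure lasted 48 hours before viability readout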
# Beta Lactamase = Beta Lactamase (Pseudomonas aeruginosa, UniProt Q932Y6); test: BLA reporter interference, concentration series – BLA reporter cells, FRET fluorescence, artefact control for TLR9-MyD88 binding inhibitor project, dose response (AID 588341); format: cell-based;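 also: cell based assay in CHO-K1 cells stably expressing beta-lactamase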
# Chain of Beta Lactamase (Q932Y6 whole entry): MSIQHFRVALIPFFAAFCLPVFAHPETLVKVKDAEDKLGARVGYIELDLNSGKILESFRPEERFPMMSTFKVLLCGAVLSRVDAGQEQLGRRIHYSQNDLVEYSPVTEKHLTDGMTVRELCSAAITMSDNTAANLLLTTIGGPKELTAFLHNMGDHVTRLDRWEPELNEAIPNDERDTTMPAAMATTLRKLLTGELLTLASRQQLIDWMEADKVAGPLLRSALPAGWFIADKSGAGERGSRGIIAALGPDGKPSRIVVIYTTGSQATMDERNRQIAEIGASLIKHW
# [8] = target: Dual specificity tyrosine-phosphorylation-regulated kinase 1A (Rattus norvegicus, UniProt Q63470); format: biochemical, Homo sapiens
# [9] = target: Beta-2 adrenergic receptor (Homo sapiens, UniProt P07550); test: ADRB2 activation measured by internalization – cell-based, FAP fluorogen, flow cytometry, cherry pick 1, dose response (AID 588763); format: functional
# Chain of Beta-2 adrenergic receptor (P07550 whole entry): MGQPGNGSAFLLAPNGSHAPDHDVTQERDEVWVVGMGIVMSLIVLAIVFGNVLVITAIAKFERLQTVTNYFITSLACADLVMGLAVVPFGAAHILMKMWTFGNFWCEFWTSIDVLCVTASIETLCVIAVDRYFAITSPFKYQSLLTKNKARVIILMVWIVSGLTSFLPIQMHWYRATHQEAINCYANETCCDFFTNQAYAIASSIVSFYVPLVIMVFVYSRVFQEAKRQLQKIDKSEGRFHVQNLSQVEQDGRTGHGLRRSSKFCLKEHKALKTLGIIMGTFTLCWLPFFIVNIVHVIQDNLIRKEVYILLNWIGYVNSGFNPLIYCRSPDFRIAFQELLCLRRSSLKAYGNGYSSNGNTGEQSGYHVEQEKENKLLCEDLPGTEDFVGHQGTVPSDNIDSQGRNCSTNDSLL
# [10] = target: T4, Polyadenylate-binding protein 1 (Homo sapiens, UniProt P11940); test: MLLE binding blockers, Cy5 peptide tracer – biochemical, fluorescence polarization, Cy5-PAM2 peptide, secondary, miRNA deadenylation inhibitor project, dose response (AID 602260); format: functional; settings: read-out: IC50_Mean
# T4 sequence (P11940 whole entry, the tested form may be a part): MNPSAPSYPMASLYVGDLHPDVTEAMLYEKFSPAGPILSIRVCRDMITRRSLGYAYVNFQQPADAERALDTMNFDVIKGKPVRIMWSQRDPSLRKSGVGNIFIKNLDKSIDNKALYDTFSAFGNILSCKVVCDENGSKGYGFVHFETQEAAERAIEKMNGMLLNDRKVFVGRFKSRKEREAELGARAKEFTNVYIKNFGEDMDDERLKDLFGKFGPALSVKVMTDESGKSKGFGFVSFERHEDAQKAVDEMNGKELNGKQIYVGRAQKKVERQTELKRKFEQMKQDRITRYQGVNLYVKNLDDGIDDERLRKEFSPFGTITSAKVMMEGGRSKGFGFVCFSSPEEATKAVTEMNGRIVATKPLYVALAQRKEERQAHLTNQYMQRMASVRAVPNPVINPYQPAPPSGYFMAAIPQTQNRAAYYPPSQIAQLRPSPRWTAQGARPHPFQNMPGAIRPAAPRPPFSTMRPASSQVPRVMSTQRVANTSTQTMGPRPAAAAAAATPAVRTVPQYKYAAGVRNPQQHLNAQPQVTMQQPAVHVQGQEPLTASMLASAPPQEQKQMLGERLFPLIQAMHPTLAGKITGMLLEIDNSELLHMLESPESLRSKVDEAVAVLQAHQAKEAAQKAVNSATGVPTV
# [11] = target: T4, Polyadenylate-binding protein 1; test: MLLE domain peptide-binding blockers, IC50 – biochemical, fluorescence polarization, FITC-PAM2 peptide, dose response (AID 602259); format: functional; settings: read-out: IC50_Mean
# Large T antigen = Large T antigen (Simian virus 40, UniProt P03070); format: functional, Betapolyomavirus macacae;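 also: Confirmatory-stage PubChem screen for compounds that inhibit SV40 T antigen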
# Chain of Large T antigen (P03070 whole entry): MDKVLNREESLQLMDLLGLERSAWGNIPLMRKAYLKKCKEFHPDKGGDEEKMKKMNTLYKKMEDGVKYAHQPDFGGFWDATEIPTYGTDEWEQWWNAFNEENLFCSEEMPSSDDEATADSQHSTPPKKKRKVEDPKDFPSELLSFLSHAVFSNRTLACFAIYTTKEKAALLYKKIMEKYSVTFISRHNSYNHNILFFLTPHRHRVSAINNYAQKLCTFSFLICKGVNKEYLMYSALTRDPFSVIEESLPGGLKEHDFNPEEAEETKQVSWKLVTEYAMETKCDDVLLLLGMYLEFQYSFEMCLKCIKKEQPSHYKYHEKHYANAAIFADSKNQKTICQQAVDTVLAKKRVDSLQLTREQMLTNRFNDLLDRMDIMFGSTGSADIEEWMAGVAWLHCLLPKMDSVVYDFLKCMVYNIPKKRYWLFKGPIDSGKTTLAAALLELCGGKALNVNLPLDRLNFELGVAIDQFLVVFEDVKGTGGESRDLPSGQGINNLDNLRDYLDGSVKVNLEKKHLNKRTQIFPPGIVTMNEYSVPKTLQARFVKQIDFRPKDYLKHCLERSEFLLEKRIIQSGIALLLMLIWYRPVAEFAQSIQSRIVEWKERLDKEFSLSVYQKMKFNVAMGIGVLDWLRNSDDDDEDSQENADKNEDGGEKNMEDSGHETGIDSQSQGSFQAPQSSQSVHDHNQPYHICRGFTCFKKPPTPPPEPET
# Chain of Glucose-6-phosphate 1-dehydrogenase (P11413 whole entry): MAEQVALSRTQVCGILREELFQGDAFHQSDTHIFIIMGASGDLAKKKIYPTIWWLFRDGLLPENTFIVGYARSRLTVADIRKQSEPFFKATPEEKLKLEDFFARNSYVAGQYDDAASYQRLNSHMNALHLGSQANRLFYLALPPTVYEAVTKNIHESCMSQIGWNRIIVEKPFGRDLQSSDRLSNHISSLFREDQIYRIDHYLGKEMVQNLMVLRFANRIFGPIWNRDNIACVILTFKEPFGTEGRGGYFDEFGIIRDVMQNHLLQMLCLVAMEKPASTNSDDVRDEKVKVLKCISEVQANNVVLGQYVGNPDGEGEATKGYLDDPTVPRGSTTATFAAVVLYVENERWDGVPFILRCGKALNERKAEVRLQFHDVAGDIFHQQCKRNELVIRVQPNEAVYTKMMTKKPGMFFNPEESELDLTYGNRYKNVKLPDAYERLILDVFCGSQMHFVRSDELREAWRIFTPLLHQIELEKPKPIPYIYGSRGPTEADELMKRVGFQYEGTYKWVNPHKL
smiles,measurement,setting,value
Nc1ccc2c3c(cccc13)-c1ccccc1-2,IC50,[1],> 80 µM (inactive)
same,AC50,Keap1/Nrf2,2.01 µM (active)
same,EC50,[2],4.79 µM (active)
same,IC50,[3],39.2 µM (active)
CCCCCN(C(=O)CCC(=O)OCC(=O)N(C)Cc1ccc(C)cc1)c1c(N)n(CCCC)c(=O)[nH]c1=O,AC50,Escherichia coli [4],> 380 µM (inactive)
C/C(Cl)=C/CSc1nn2c(=O)c3ccccc3nc2s1,AC50,HeLa,36.3 µM (active)
COc1ccccc1Nc1nc(C)cs1,AC50,Escherichia coli [5],26.8 µM (active)
same,AC50,Escherichia coli [4],60.7 µM (active)
CCc1nc(NC(C)(C)C)c2cnn(-c3ccccc3)c2n1,AC50,HeLa,134 µM (active)
c1cnc(SCCOc2ccc3c(c2)CCC3)nc1,EC50,[6],> 160 µM (inactive)
same,IC50,HEK293,> 67.6 µM (inactive)
same,IC50,[7],> 67.6 µM (inactive)
Brc1cc(Br)c2nc(-c3ccc(N4CCOCC4)cc3)ccc2c1,IC50,CHO,> 49.8 µM (inactive)
same,IC50,Beta Lactamase,2.37 µM (active)
N#C/C(=C\c1cn[nH]c1-c1ccc(Cl)cc1)C(=O)NCc1ccccc1,AC50,Escherichia coli [5],12.4 µM (active)
same,AC50,Escherichia coli [4],300 µM (active)
Oc1ccc(Nc2nc(-c3ccccc3)nc3ccccc23)cc1,AC50,[8],0.461 µM (active)
NC(=O)CC(NC(=O)c1cccc(Br)c1)c1ccc(N2CCN(c3ccccn3)CC2)c([N+](=O)[O-])c1 (stereo unspecified),AC50,[8],66.8 µM (active)
same,EC50,[9],0.225 µM (active)
Oc1cccc(NC(=S)N=Nc2c(O)[nH]c3ccccc23)c1,AC50,[8],12.4 µM (active)
same,IC50,[10],> 66 µM (inactive)
same,IC50,[11],> 66 µM (inactive)
CN(C(=O)c1cc2sccc2n1C)C1CCCCC1,AC50,HeLa,218 µM (active)
CCN(CC)c1ccc(-c2nc3cnccn3c2NC2CCCC2)cc1,IC50,Large T antigen,21.9 µM (active)
same,IC50,CHO,> 16.6 µM (inactive)
same,IC50,Beta Lactamase,5.29 µM (active)
